Laboratory results: patent publication US10208033B2, “β-carboline, dihydro-β-carboline and tetrahydro-β-carboline alkaloid derivatives and preparation methods same and use in aspects of preventing and treating plant viruses, fungicides and insecticides” (NANKAI UNIVERSITY, priority 2013, dated 2019)

Experiments:
Rhizoctonia solani = test: Fungicidal (bactericidal) activity in vitro, PDA colony diameter; assay type: cell-based; conditions: 50 mg/kg
Rhizoctonia cereali = test: as above; assay type: cell-based; conditions: 50 mg/kg
[1] = test system: tobacco mosaic virus (TMV); test: Anti-TMV in vivo therapeutic effect; set-up: species or system tobacco mosaic virus (host Nicotiana tabacum L.cv.Xanthi NN)
armyworms = assay type: in vivo; conditions: concentration 600 mg/kg
Macrophoma kawatsukai = test: Fungicidal (bactericidal) activity in vitro, PDA colony diameter; assay type: cell-based; conditions: 50 mg/kg
[2] = test system: tobacco mosaic virus (TMV); test: Anti-TMV in vivo protective effect; set-up: species or system tobacco mosaic virus (host Nicotiana tabacum L.cv.Xanthi NN)
Bipolaria maydis = test: organism not typed; assay type: cell-based; conditions: 50 mg/kg
Phytophthora capsici = test: Fungicidal (bactericidal) activity in vitro, PDA colony diameter; assay type: cell-based; conditions: 50 mg/kg
potato late blight = test: microbe, parasite or virus in culture; assay type: cell-based
mosquito larvae = test: whole plant or invertebrate; conditions: concentration 10 mg/kg, 24 h
Procedure, shortened: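 Compound dissolved in acetone (or other solvent) to a 1000 ppm stock and diluted in water to 5 ppm. Ten Culex pipiens pallens larvae at the start of the fourth instar, laboratory-reared, added per beaker; solvent-only aqueous control.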

Sclerotinia scleotiorum = test: Fungicidal (bactericidal) activity in vitro, PDA colony diameter; assay type: cell-based; conditions: 50 mg/kg
corn borers = conditions: concentration 600 mg/kg
Alternaria solani = test: Fungicidal (bactericidal) activity in vitro, PDA colony diameter; assay type: cell-based; conditions: 50 mg/kg
Cercospora arachidicola = test: as above; assay type: cell-based; conditions: 50 mg/kg
[3] = test system: tobacco mosaic virus (TMV); test: Anti-TMV in vivo inactivation; set-up: species or system tobacco mosaic virus (host Nicotiana tabacum L.cv.Xanthi NN)
[4] = test system: tobacco mosaic virus (TMV); test: Anti-TMV in vitro effect (half-leaf soaking); assay type: cell-based, tobacco mosaic virus (host Nicotiana tabacum L.cv.Xanthi NN)
Fusarium graminearumt = test: microbe, parasite or virus in culture; assay type: cell-based; conditions: 50 mg/kg
[5] = test system: Colletotrichum orbiculare; test: Fungicidal (bactericidal) activity in vitro, PDA colony diameter; assay type: cell-based; conditions: 50 mg/kg
Botrytis cinerea = test: as above; assay type: cell-based; conditions: 50 mg/kg
cotton bollworms = test: whole plant or invertebrate; conditions: concentration 600 mg/kg
Method: Experimental method of cotton bollworms: feed and drug mixing method: measure 3 mL of prepared solution and add it to about 27 g of newly prepared feed, thereby obtaining needed concentration through dilution by 10 times.

cucumber fusarium wilt = test: Fungicidal (bactericidal) activity in vitro, PDA colony diameter; assay type: cell-based; conditions: 50 mg/kg
Fusarium fujikuroi = test: as above; assay type: cell-based; conditions: 50 mg/kg

Row | SMILES | Bactericidal activity (%) Rhizoctonia solani (Rhizoctonia solani) | Bactericidal activity (%) Rhizoctonia cereali (Rhizoctonia cereali) | Relative inhibition rate (%) In vivo therapy ([1]; treatment dose 100 μg/mL) | Relative inhibition rate (%) In vivo therapy ([1]; treatment dose 500 μg/mL) | Armyworm Mortality (%) (armyworms) | Bactericidal activity (%) Macrophoma kawatsukai (Macrophoma kawatsukai) | Relative inhibition rate (%) In vivo protection ([2]; treatment dose 100 μg/mL) | Bactericidal activity (%) Bipolaria maydis (Bipolaria maydis) | Bactericidal activity (%) Phytophthora capsici (Phytophthora capsici) | Bactericidal activity (%) potato late blight (potato late blight) | Mosquito larvae Mortality (%) (mosquito larvae) | Bactericidal activity (%) Sclerotinia scleotiorum (Sclerotinia scleotiorum) | Corn borer Mortality (%) (corn borers) | Bactericidal activity (%) Alternaria solani (Alternaria solani) | Bactericidal activity (%) Cercospora arachidicola (Cercospora arachidicola) | Relative inhibition rate (%) In vivo inactivation ([3]; treatment dose 100 μg/mL) | Relative inhibition rate (%) In vivo inactivation ([3]; treatment dose 500 μg/mL) | Relative inhibition rate (%) In vitro activity ([4]; treatment dose 100 μg/mL) | Relative inhibition rate (%) In vitro activity ([4]; treatment dose 500 μg/mL) | Bactericidal activity (%) Fusarium graminearumt (Fusarium graminearumt) | other results
1 | C[C@@H]1N[C@H](C(=O)NN=CC(C)(C)C)Cc2c1[nH]c1ccccc21 [Ic-26, (1S, 3S)—N′-(2,2-dimethylpropylidene)-1-methyl-2,3,4,9-tetrahydropyridino [3,4-b] indol-3-formylhydrazine] | 8.3% | 48.6% | 36.8% | 68.2% | 25% | 36.4% | 33.4% | 20.0% | 12.1% | 17.4% | 55% | 15.4% | 30% | 19.0% | 18.2% | 28.9% | 63.7% | 27.5% | 64.4% | 46.2% | Relative inhibition rate (%) In vivo protection ([2]; treatment dose 500 μg/mL): 66.8%; Bactericidal activity (%) Colletotrichum orbiculare [5]: 24.0%; Bactericidal activity (%) Botrytis cinerea (Botrytis cinerea): 36.1%; Cotton bollworm Mortality (%) (cotton bollworms): 20%; Bactericidal activity (%) Cucumber fusarium wilt (cucumber fusarium wilt): 4.5%; Bactericidal activity (%) Fusarium fujikuroi (Fusarium fujikuroi): 29.4%
2 | CC(=NNC(=O)[C@@H]1Cc2c([nH]c3ccccc23)[C@H](C)N1)c1ccccc1 [Ic-27, (1S, 3S)—N′-(1-phenylethylidene)-1-methyl-2,3,4,9-tetrahydropyridino [3,4-b] indol-3-formylhydrazine] | 15.3% | 51.4% | 11.1% | 34.8% | 20% | 39.4% | 7.9% | 36.0% | 36.4% | 26.1% | 40% | 11.5% | 30% | 33.3% | 36.4% | 13.6% | 39.5% | 9.2% | 30.2% | 61.5% | Relative inhibition rate (%) In vivo protection ([2]; treatment dose 500 μg/mL): 37.2%; Bactericidal activity (%) Colletotrichum orbiculare [5]: 52.0%; Bactericidal activity (%) Botrytis cinerea (Botrytis cinerea): 69.4%; Cotton bollworm Mortality (%) (cotton bollworms): 30%; Bactericidal activity (%) Cucumber fusarium wilt (cucumber fusarium wilt): 0.0%; Bactericidal activity (%) Fusarium fujikuroi (Fusarium fujikuroi): 29.4%
3 | C[C@@H]1N[C@H](C(=O)NN=C2CCCCC2)Cc2c1[nH]c1ccccc21 [Ic-29, (1S, 3S)—N′-cyclohexylidene-1-methyl-2,3,4,9-tetrahydropyridino [3,4-b] indol-3-formylhydrazine] | 15.3% | 48.6% | 10.9% | 41.9% | 20% | 9.1% | 14.3% | 32.0% | 12.1% | 26.1% | 45% | 7.7% | 15% | 19.0% | 18.2% | 12.8% | 33% | 8.6% | 43.4% | 46.2% | Relative inhibition rate (%) In vivo protection ([2]; in vivo): 46.2%; Bactericidal activity (%) Colletotrichum orbiculare [5]: 32.0%; Bactericidal activity (%) Botrytis cinerea (Botrytis cinerea): 52.8%; Cotton bollworm Mortality (%) (cotton bollworms): 25%; Bactericidal activity (%) Cucumber fusarium wilt (cucumber fusarium wilt): 0.0%; Bactericidal activity (%) Fusarium fujikuroi (Fusarium fujikuroi): 29.4%
4 | Cc1nnsc1C(=O)NNC(=O)[C@@H]1Cc2c([nH]c3ccccc23)[C@H](C)N1 [Id-2, 4-methyl-N′-((1S, 3S)-1-methyl-2,3,4,9-tetrahydropyridino [3,4-b]indol-3-triformyl)-1,2,3-thiadiazole-5-formylhydrazine] | 0.0% | 45.9% | 19.1% | 48.8% | 40% | 39.4% | 16% | 28.0% | 6.1% | 30.4% | 80% | 19.2% | 40% | 14.3% | 18.2% | 9.8% | 42.9% | 13.5% | 41.2% | 53.8% | Relative inhibition rate (%) In vivo protection ([2]; treatment dose 500 μg/mL): 51.3%; Bactericidal activity (%) Colletotrichum orbiculare [5]: 24.0%; Bactericidal activity (%) Botrytis cinerea (Botrytis cinerea): 61.1%; Cotton bollworm Mortality (%) (cotton bollworms): 40%; Bactericidal activity (%) Cucumber fusarium wilt (cucumber fusarium wilt): 4.5%; Bactericidal activity (%) Fusarium fujikuroi (Fusarium fujikuroi): 29.4%
5 | C[C@@H]1N[C@H](C(=O)NNC(=O)c2ccncc2)Cc2c1[nH]c1ccccc21 [Id-3, (1S, 3S)—N′-isonicotinoyl-1-methyl-2,3,4,9-tetrahydropyridino [3,4-b] indol-3-formylhydrazine] | 15.3% | 18.9% | 11.6% | 45% | 25% | 39.4% | 14.2% | 16.0% | 15.2% | 26.1% | 50% | 3.8% | 25% | 14.3% | 27.3% | 17.9% | 45.3% | 6.4% | 39.2% | 53.8% | Relative inhibition rate (%) In vivo protection ([2]; treatment dose 500 μg/mL): 42.1%; Bactericidal activity (%) Colletotrichum orbiculare [5]: 36.0%; Bactericidal activity (%) Botrytis cinerea (Botrytis cinerea): 55.6%; Cotton bollworm Mortality (%) (cotton bollworms): 40%; Bactericidal activity (%) Cucumber fusarium wilt (cucumber fusarium wilt): 13.6%; Bactericidal activity (%) Fusarium fujikuroi (Fusarium fujikuroi): 29.4%
6 | C[C@@H]1N[C@H](C(=O)NNC(=O)c2ccccc2)Cc2c1[nH]c1ccccc21 [Id-4, (1S, 3S)—N′-benzoyl-1-methyl-2,3,4,9-tetrahydropyridino [3,4-b] indol-3-formylhydrazine] | 5.6% | 35.1% | 0% | 34.2% | 10% | 45.5% | 12.1% | 28.0% | 18.2% | 17.4% | 25% | 7.7% | 15% | 33.3% | 27.3% | 0% | 37.5% | 0% | 36.9% | 38.5% | Relative inhibition rate (%) In vivo protection ([2]; treatment dose 500 μg/mL): 40%; Bactericidal activity (%) Colletotrichum orbiculare [5]: 32.0%; Bactericidal activity (%) Botrytis cinerea (Botrytis cinerea): 55.6%; Cotton bollworm Mortality (%) (cotton bollworms): 30%; Bactericidal activity (%) Cucumber fusarium wilt (cucumber fusarium wilt): 13.6%; Bactericidal activity (%) Fusarium fujikuroi (Fusarium fujikuroi): 29.4%
